What was measured:
Assay type in all cases: cell-based
[1] = molecular target: T1, TrxR1 in HCT116 and MCF7 cells (Homo sapiens, UniProt Q16881); experiment: Detection of TrxR dimers by Western blot; conditions: 5 μM, detected as soon as 2 h
T1 construct: endogenous in cells; host or cells: MCF7; HCT116
T1 sequence (Q16881 1-499 isoform Q16881-5): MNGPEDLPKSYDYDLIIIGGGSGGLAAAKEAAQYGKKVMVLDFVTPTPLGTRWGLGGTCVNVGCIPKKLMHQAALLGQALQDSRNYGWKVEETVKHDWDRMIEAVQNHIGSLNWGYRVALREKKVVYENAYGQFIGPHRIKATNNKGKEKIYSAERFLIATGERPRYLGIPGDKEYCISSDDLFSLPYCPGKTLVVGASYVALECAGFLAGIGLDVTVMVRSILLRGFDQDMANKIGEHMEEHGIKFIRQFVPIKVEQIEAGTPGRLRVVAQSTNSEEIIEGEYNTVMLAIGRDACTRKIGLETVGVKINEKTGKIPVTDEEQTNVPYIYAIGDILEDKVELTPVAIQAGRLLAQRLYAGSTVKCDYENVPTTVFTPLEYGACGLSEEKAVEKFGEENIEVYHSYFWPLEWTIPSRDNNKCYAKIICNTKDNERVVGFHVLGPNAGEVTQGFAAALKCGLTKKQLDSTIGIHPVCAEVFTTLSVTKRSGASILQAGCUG
Protocol: The extraction of total cell lysates and western blot were performed according to standard procedure. The antibodies used for immunoblotting were: p53 (sc-126, Santa Cruz Biotechnology), γH2AX (#07-164, Millipore), TrxR1 19A1 (AbFrontier). Anti-β-actin monoclonal antibody (Millipore) was used as loading control. The horseradish peroxidase-coupled secondary antibodies (Jackson ImmunoResearch) and SuperSignal™ West Dura Extended Duration Substrate detection system (Thermo Fischer Scientific), and images were visualized using ChemiDoc Imaging System (Bio-Rad).
MCF7 or HCT116 cells were treated in culture with 5 or 10 μM of 1d*HCl (Example 4) in complete medium for 2 h or 6 h. For each case, duplicate drug treated samples were produced plus duplicate control treatment samples using equal volumes of the drug vehicle dimethyl sulfoxide. Detached cells from each biological replicate were washed, suspended in PBS containing protease inhibitors and cells lysed through freeze thaw cycles in liquid N2, according to the reference protocol. Soluble fraction was separated from precipitated protein by ultracentrifugation at 100000 g for 30 minutes at 4° C. and TrxR1 dimer formation was analysed using Western blot as described above. […]

MCF7 cells = experiment: Apoptosis detection by FACS (Annexin V); conditions: 2 μM, 24 h
Protocol: Cells were placed on 12-well plate at a density of 30000/cm^2 and treated with compounds. After 24 h incubation cells were harvested by trypsinization, fixed with 70% ethanol, treated with RNase A (0.25 mg/ml) and stained with Annexin V according to manufacturer's instructions (Thermo Fisher Scientific). Samples were analyzed on a Becton Dickinson FACScan. Data were analyzed by the CellQuest software, version 3.2.1.
To find out whether the growth suppression by 1d*HCl is due to triggering cell death by apoptosis, we performed the Annexin V-mediated staining of phosphatidylserine, exposed on surface of cells undergoing apoptotic cell death. We detected Annexin V-positive cells using FACS.

C33A = experiment: Growth suppression, cancer cell line panel (resazurin); conditions: 0.4-25.6 μM, 48 hours
Protocol: (§1) Breast, colon, ovarian, cervical, liver and lung carcinoma cell lines were grown in DMEM supplemented with 10% FBS, and antibiotics were cultured at 37° C. and 5% CO2. Osteosarcoma, melanoma, lymphoma, neuroblastoma and leukemia cell lines were cultured in RPMI 1640 with 10% FBS and antibiotics. An oxygen concentration of 0.3% was obtained by flushing a sealed box containing the cells with premixed gas composed of 95% nitrogen (N2) and 5% CO2 (AGA AB, Sweden). To obtain an oxygen concentration of 0.05%, the cells were flushed with the premixed gas continuously throughout the experiment.
(§2) Cells were grown in 96-well plates at a density of 3000 cells per well with or without doxycycline and treated with compounds. After 48 hours of incubation the proliferative cell reagent resazurin (Thermo Fisher Scientific) was added to the cells. The degree of resazurin reduction, which reflects cell viability, was measured by microplate reader by monitoring the absorbance at 570 nm and 600 nm, according to the manufacturer.
(§3) The panel of cancer cell lines, including carcinomas of breast (MDA-MB231, SKBR3, T47D, MCF7; BT549, BT20, MDA-MB468), colon, (SW480, RKO, HT29, HCT116) ovarian (OVCAR3, OVCAR4, OVCAR8), cervical (SW756, C33A), liver (HEPG2) and lung (H23), osteosarcoma (SJSA and U2OS), melanoma (ME180), lymphoma (Raji, HDLM2), neuroblastoma (SKNAS, IMR32) and leukemia (NB4, K562) were treated with increasing concentrations of 1d*HCl: 0.4; 0.8; 1.6; 3.2; 6.4; 12.8; 25.6 μM in 96-well plates. After 48 hours of incubation the proliferative cell reagent resazurin was added to the cells. The degree of resazurin reduction, which reflects cell viability, was measured by microplate reader by monitoring the absorbance at 570 nm and 600 nm, according to the manufacturer, and the IC50 and AUC (area under curve) were determined (Table 2). As could be seen in Table 2, 1d*HCl suppressed the growth of cancer cell lines of a different origin, including carcinomas, osteosarcomas, melanoma, lymphoma, leukemia and neuroblastoma. These findings open up a possibility of the application of the present invention in anti-cancer therapy in a broad range of tumor types.

U2OS = experiment: as above; conditions: 0.4-25.6 μM, 48 hours
Protocol: as §1, §2, §3

OVCAR3 = experiment: as above; conditions: OVCAR3, 0.4-25.6 μM, 48 hours
Protocol: as §1, §2, §3

OVCAR4 = experiment: as above; conditions: OVCAR4, 0.4-25.6 μM, 48 hours
Protocol: as §1, §2, §3

IMR32 = experiment: as above; conditions: IMR32, 0.4-25.6 μM, 48 hours
Protocol: as §1, §2, §3

Cl.N#Cc1c(-c2cccnc2)[n+]([O-])c2cc(F)c(N3CCOCC3)cc2[n+]1[O-] [Compound 1d*HCl, 6-Fluoro-7-(morpholin-4-yl)-3-(pyridin-3-yl)quinoxaline-2-carbonitrile-1,4-dioxide hydrochloride]
formation of TrxR1 covalent dimers (130 kDa band) [1]: induces the formation of TrxR1 covalent dimers | Annexin V-positive cells (apoptosis) (MCF7 cells): induced Annexin V-positive cells statistically significantly | AUC (area under curve) (C33A): 21 | AUC (area under curve) (U2OS): 2.10 | AUC (area under curve) (OVCAR3): 4.813 | AUC (area under curve) (OVCAR4): 3.7 | AUC (area under curve) (IMR32): 6.40

From US20260265216A1, “NOVEL THIOREDOXIN REDUCTASE INHIBITORS” (GENEXPLAIN GMBH, priority 2021, published 2026)
